Data set [1] in a line: Cmax in Sprague-Dawley rat at 4 mg/kg, ip measured upto 48 hrs. The class given is ADME, organism-based. The settings on record: in vivo.
Data set [2] deals with T1, Protein cereblon/Tyrosine-protein kinase BTK (Homo sapiens, UniProt Q06187+Q96SW2). Briefly: PROTAC activity at BTK/CRBN in human MINO cells assessed as BTK protein degradation pretreated with 2 uM bafilomycin followed by 1 hr treated at 20 nM measured after 48 hrs by Western blotting analysis. The following applies: dose […]. The class given is cell-based.
Target sequence in this assay (Q06187 2-659 limits assumed): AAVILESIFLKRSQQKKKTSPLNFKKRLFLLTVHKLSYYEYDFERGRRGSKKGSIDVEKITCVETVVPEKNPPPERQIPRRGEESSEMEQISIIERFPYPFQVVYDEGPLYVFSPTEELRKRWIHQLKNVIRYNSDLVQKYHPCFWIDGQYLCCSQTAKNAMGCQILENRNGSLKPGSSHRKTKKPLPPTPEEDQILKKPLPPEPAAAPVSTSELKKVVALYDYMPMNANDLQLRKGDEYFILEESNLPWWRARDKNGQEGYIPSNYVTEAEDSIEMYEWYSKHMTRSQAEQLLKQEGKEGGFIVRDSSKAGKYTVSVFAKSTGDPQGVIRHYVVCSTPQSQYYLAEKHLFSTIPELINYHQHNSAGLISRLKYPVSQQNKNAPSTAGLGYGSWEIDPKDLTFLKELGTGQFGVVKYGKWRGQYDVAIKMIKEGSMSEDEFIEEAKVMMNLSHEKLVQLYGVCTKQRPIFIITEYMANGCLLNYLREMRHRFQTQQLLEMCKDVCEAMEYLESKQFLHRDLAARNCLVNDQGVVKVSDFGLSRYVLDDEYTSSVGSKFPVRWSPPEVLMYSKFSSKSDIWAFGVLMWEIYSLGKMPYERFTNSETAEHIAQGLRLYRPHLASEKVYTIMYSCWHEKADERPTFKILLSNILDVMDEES
Target sequence in this assay (Q96SW2 whole entry partner): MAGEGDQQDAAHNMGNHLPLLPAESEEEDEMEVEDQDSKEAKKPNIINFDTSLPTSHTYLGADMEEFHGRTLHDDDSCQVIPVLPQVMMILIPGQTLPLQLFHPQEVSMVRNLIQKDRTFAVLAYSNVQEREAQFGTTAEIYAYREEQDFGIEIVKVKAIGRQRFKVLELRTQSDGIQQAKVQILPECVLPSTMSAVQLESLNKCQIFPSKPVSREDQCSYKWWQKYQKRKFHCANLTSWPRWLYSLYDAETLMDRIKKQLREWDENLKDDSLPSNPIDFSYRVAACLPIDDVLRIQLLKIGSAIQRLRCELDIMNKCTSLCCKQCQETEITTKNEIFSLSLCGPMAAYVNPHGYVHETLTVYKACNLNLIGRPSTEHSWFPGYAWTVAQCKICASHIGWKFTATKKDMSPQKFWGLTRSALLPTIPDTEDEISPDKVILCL
The target of data set [3] is T2, Protein cereblon/Tyrosine-protein kinase BTK (Mus musculus) (UniProt P35991+Q8C7D2). Put plainly: PROTAC activity at BTK/CRBN in C57BL/6J mouse BMM cells assessed as reduction in mCSF/RANKL-stimulated NFATc1 protein expression at 25 to 100 nM followed by stimulated with mCSF/RANKL measured after 2 hrs by Western blot analysis. Format: cell-based. The settings on record: BMDM, dose 25-100 nM.

For data set [4], the target named is T1, Protein cereblon/Tyrosine-protein kinase BTK. Briefly: PROTAC activity at BTK/CRBN in human MINO cells assessed as BTK protein degradation measured for 4 hrs by Western blotting analysis. The class given is cell-based. Background: Immunoblotting shows a protein as a band on a membrane.
Target sequence in this assay (Q06187 whole entry): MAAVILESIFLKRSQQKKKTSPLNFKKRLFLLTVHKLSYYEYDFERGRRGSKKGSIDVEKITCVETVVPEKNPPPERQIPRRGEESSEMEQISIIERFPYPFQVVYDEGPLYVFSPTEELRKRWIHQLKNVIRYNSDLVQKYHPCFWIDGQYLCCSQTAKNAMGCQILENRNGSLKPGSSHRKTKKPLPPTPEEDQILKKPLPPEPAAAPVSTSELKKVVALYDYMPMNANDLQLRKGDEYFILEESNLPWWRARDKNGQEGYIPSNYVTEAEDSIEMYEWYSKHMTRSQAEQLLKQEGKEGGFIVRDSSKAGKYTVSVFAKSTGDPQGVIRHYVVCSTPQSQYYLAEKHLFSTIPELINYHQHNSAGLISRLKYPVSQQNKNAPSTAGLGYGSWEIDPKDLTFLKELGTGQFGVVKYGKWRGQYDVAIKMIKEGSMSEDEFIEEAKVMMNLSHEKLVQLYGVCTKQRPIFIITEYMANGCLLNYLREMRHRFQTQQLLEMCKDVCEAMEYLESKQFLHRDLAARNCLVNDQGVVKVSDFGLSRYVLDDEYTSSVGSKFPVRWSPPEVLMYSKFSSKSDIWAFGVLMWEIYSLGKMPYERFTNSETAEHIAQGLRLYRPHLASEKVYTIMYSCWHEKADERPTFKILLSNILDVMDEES
Target sequence in this assay (Q96SW2 whole entry): as the sequence (Q96SW2 whole entry partner) above
Data set [5] concerns the target T2, Protein cereblon/Tyrosine-protein kinase BTK (Mus musculus). Put plainly: PROTAC activity at BTK/CRBN in mCSF/RANKL-stimulated C57BL/6J mouse BMDM assessed as reduction in phosphorylated JNK protein level at 25 to 100 nM followed by stimulated with mCSF/RANKL measured after 2 hrs by Western blotting analysis. Format: cell-based. The following applies: dose 25-100 nM.

Data set [6] has as its system BMMC. Briefly: Inhibition of osteoclastogenesis in C57BL/6J mouse BMM cells assessed as inhibition of mCSF/RANKL-stimulated matured osteoclast formation measured after 5 days co-incubation by tartrate-resistant acid phosphatase (TRAP) staining assay. The class given is functional, cell-based. The settings on record: time 5.0 day.
The target in data set [7] is T1, Protein cereblon/Tyrosine-protein kinase BTK. Put plainly: Binding affinity to BTK/CRBN (unknown origin) assessed as ternary complex formation measured after 60 mins incubation by HTRF assay. In general terms: In TR-FRET formats the signal depends on donor and acceptor labels being close together.
Target sequence in this assay (Q06187 whole entry): as the sequence (Q06187 whole entry) above
Target sequence in this assay (Q96SW2 whole entry): as the sequence (Q96SW2 whole entry partner) above
The target is the same in data set [8]. Put plainly: PROTAC activity at BTK/CRBN in human MINO cells assessed as BTK protein degradation at 20 nM measured after 2 hrs by Western blotting analysis. Format: cell-based.
Target sequence in this assay (Q06187 2-659 limits assumed): as the sequence (Q06187 2-659 limits assumed) above
Target sequence in this assay (Q96SW2 whole entry partner): as the sequence (Q96SW2 whole entry partner) above
For data set [9] the target is unchanged. Briefly: PROTAC activity at BTK/CRBN in human MINO cells assessed as BTK protein degradation at 20 nM measured after 24 hrs by Western blotting analysis relative to control. Format: cell-based.
Target sequence in this assay (Q06187 2-659 limits assumed): as the sequence (Q06187 2-659 limits assumed) above
Target sequence in this assay (Q96SW2 whole entry partner): as the sequence (Q96SW2 whole entry partner) above
In data set [10] the test system is BMMC. Put plainly: Inhibition of RANKKL-induced upregulation of osteoclast related genes in C57BL/6J mouse BMM cells assessed as reduction in mCSF/RANKL-stimulated Dcstamp-gene expression at 25 to 100 nM followed by stimulated with mCSF/RANKL measured after 2 hrs by qPCR analysis. The class given is functional, cell-based. The settings on record: dose 25-100 nM.

The target in data set [11] is T1, Protein cereblon/Tyrosine-protein kinase BTK. Put plainly: Binding affinity to BTK/CRBN (unknown origin) assessed as ternary complex formation by measuring peak concentration measured after 60 mins incubation by HTRF assay.
Target sequence in this assay (Q06187 2-659 limits assumed): as the sequence (Q06187 2-659 limits assumed) above
Target sequence in this assay (Q96SW2 whole entry partner): as the sequence (Q96SW2 whole entry partner) above
The subject of the next data set is Mus musculus. Put plainly: Antiosteoclastogenic effects in LPS-soaked ligature-induced C57BL/6J mouse periodontal disease model assessed as reduction in periodontal alveolar bone loss at 30 mg/kg, ip treated on day 0, 1,4, 7 and measured on day 10 by Micro-CT 3D scan. Format: functional, organism-based. The settings on record: time 7.0 day.
Data set [12] relates to BMMC. Briefly: Inhibition of RANKKL-induced upregulation of osteoclast related genes in C57BL/6J mouse BMM cells assessed as reduction in mCSF/RANKL-stimulated NFATc1 gene expression at 25 to 100 nM followed by stimulated with mCSF/RANKL measured after 2 hrs by qPCR analysis. The class given is functional, cell-based. The following applies: dose 25-100 nM. A general note: Quantitative PCR measures a nucleic acid by following its amplification.

Data set [13] is described as follows: AUC (0 to infinity) in Sprague-Dawley rat at 4 mg/kg, ip measured upto 48 hrs. The class given is ADME, organism-based. The following applies: in vivo.
Data set [14] is described as follows: Apparent volume of distribution in Sprague-Dawley rat at 2 mg/kg, iv measured upto 48 hrs. Format: ADME, organism-based. The settings on record: in vivo, read-out: Vz.
Data set [15] deals with T1, Protein cereblon/Tyrosine-protein kinase BTK. Briefly: PROTAC activity at BTK/CRBN in human MINO cells assessed as BTK protein degradation by measuring onset time activity at 20 nM by Western blotting analysis. The class given is cell-based.
Target sequence in this assay (Q06187 2-659 limits assumed): as the sequence (Q06187 2-659 limits assumed) above
Target sequence in this assay (Q96SW2 whole entry partner): as the sequence (Q96SW2 whole entry partner) above
Data set [16] in a line: AUC (0 to t) in Sprague-Dawley rat at 2 mg/kg, iv measured upto 48 hrs. Format: ADME, organism-based. The settings on record: in vivo.
Data set [17] has as its target T1, Protein cereblon/Tyrosine-protein kinase BTK. Put plainly: PROTAC activity at BTK/CRBN in human MINO cells assessed as BTK protein degradation pretreated with 2 uM ibrutinib followed by 1 hr treated at 20 nM measured after 48 hrs by Western blotting analysis. The following applies: dose […]. Format: cell-based.
Target sequence in this assay (Q06187 2-659 limits assumed): as the sequence (Q06187 2-659 limits assumed) above
Target sequence in this assay (Q96SW2 whole entry partner): as the sequence (Q96SW2 whole entry partner) above
Data set [18] has the same target. Put plainly: PROTAC activity at BTK/CRBN in human MINO cells assessed as BTK protein degradation pretreated with 2 uM pomalidomide followed by 1 hr treated at 20 nM measured after 48 hrs by Western blotting analysis. Format: cell-based. The settings on record: dose […].

Molecules are shown by their SMILES. pEC50: −log10 of the molar value. The source made the active and inactive calls. The calls are words filed in the database; no cut-off is given here.

T2 sequence (P35991 whole entry, looked up): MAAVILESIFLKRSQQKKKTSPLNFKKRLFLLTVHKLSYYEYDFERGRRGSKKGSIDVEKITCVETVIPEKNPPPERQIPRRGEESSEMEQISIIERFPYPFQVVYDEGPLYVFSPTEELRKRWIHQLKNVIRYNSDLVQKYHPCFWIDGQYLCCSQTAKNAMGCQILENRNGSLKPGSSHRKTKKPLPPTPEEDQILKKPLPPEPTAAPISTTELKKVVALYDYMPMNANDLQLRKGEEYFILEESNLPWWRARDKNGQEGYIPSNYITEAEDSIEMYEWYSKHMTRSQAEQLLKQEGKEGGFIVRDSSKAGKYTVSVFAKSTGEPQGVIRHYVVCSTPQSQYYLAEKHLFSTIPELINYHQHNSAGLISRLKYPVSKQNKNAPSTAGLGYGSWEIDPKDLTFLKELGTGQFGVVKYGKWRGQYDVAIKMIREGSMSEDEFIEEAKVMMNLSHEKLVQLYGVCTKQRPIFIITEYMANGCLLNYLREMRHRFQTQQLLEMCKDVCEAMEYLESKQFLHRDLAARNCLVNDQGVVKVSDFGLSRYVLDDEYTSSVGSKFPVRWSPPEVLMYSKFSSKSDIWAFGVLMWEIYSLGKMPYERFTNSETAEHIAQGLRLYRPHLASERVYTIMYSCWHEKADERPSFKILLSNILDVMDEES
T2 sequence (Q8C7D2 whole entry, looked up): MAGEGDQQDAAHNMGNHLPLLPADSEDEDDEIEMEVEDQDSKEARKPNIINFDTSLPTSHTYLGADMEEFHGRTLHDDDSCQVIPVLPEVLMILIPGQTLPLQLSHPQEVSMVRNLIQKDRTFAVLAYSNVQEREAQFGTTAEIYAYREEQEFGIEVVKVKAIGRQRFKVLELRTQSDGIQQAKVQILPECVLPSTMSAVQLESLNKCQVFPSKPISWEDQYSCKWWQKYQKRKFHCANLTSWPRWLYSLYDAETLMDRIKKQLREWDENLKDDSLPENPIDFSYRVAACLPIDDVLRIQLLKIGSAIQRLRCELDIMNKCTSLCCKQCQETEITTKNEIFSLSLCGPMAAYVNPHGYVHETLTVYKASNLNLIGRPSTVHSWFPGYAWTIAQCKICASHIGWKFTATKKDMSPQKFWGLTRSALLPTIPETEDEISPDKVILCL

`Cc1cc(-c2nc(Nc3cnn(C4CCN(CC5CCN(c6ccc7c(c6)C(=O)N(C6CCC(=O)NC6=O)C7=O)CC5)CC4)c3)ncc2F)ccc1CNC(=O)c1cn(C(C)(C)C)nn1` (centres undefined) had a Cmax in data set [1] of 184 ng/mL. Moreover, the result in [2], in data set [17] and in data set [18] was inactive. Also, the result (in data set [3]; in [5]; in [8]; with Mus musculus; with BMMC [12]) was Active. The DC50 in data set [4] worked out at 1.29 nM. In addition, the inhibition result with BMMC [6] and in the data set on BMMC [10] was “Active” each time. Besides, the pEC50 in data set [7] is 8.37. For the same compound, the Activity in data set [9] amounted to 99%; in data set [11] it was 12.3 nM. Besides, in data set [13], the AUC(0-inf) came to 3090 ng·h/mL. The Vd in data set [14] was found to be 9.29 L/kg. The TIME in [15] was less than 0.5 h. Also, the AUC(0-t) at 48 h in [16] is 2340 ng·h/mL.

Broadly, the Cmax is the peak of the concentration-time curve. What is called DC50 is the midpoint of the concentration-degradation curve. As usually defined, the pEC50 is the negative decadic logarithm of the EC50, by convention in mol/L. A word on the AUC(0-inf): it is the area under the concentration-time curve extrapolated to infinity. The low end stands for low exposure, the high end for high exposure. The AUC(0-t) is exposure summed from dosing to a finite time, without extrapolation to infinity. Read a high AUC(0-t) as high exposure.

For the origin of these results see ChEMBL document CHEMBL5528048, “Discovery of Novel Potent and Fast BTK PROTACs for the Treatment of Osteoclasts-Related Inflammatory Diseases” (J Med Chem, 2024).
